We go through 16 molecules from ChEMBL document CHEMBL5131466, “Discovery and development of labdane-oxindole hybrids as small-molecule inhibitors against chikungunya virus infection” (Eur J Med Chem, 2022).

As usually defined, the EC50 is the concentration at which the effect is half-maximal. As a reminder, the CC50 is the concentration at which the toxic effect on the cells reaches its halfway point.

In data set [1] the test system is Chikungunya virus. Description: Antiviral activity against CHIKV 122508 infected in […] BHK-21 cells assessed as reduction in viral titer at MOI of 1 measured after 24 hpi by viral plaque assay. To be noted: Chikungunya virus, 122508, BHK-21. In kind it is functional, organism-based.
Data set [2] concerns Chikungunya virus. Put plainly: Antiviral activity against CHIKV 122508 infected in human HeLa CCL2 cells assessed as inhibition of viral replication at MOI of 1 at 20 uM incubated for 24 hpi by viral plaque assay. To be noted: time 24 hrs. It counts as functional.
Data set [3] in a line: Cytotoxicity against human HeLa CCL2 cells assessed as reduction in cell viability measured after 24 hrs by Alamar blue assay. It counts as functional. (In general: Resazurin is reduced to fluorescent resorufin, in cell work by metabolically active cells.)
Data set [4] in a line: Selectivity index, ratio of CC50 for cytotoxicity against human HeLa CCL2 cells to EC50 for antiviral activity against CHIKV 122508 infected in human HeLa CCL2 cells. To be noted: read-out: Ratio CC50/EC50. In kind it is toxicity, cell-based.
Data set [5] deals with Chikungunya virus. Description: Antiviral activity against CHIKV 122508 infected in human HeLa CCL2 cells assessed as inhibition of viral replication at MOI of 1 at 5 uM incubated for 24 hpi by viral plaque assay. In kind it is functional. Particulars: time 24 hrs.
For data set [6], the system named is Chikungunya virus. Description: Antiviral activity against CHIKV 122508 infected in human HeLa CCL2 cells assessed as inhibition of viral replication at MOI of 1 at 80 uM incubated for 24 hpi by viral plaque assay. It counts as functional. Also noted: unit not given here. Particulars: time 24 hrs.
Data set [7] concerns Chikungunya virus. Description: Antiviral activity against CHIKV 122508 infected in human HeLa CCL2 cells assessed as inhibition of viral replication at MOI of 1 at 100 uM incubated for 24 hpi by viral plaque assay. In kind it is functional. Particulars: time 24 hrs. Also noted: unit not given here.
For data set [8], the system named is Chikungunya virus. Put plainly: Antiviral activity against CHIKV 122508 infected in human HeLa CCL2 cells assessed as inhibition of viral replication at MOI of 1 incubated for 24 hpi by immunofluorescence assay. In kind it is functional, organism-based. To be noted: Chikungunya virus, 122508, HeLa CCL2.
In the next data set the test system is BHK-21. Description: Cytotoxicity against hamster BHK-21 cells assessed as reduction in cell viability. It counts as functional. To be noted: Mesocricetus auratus.
The test system of data set [9] is Chikungunya virus. Put plainly: Antiviral activity against CHIKV 122508 mutant infected in hamster BHK-21cells assessed as log reduction in viral titer at 80 uM measured after 14 passage. In kind it is functional, organism-based.
Data set [10] can be described thus: Selectivity index, ratio of CC50 for Cytotoxicity against hamster BHK-21 cells to EC50 for Antiviral activity against CHIKV 6708 infected in hamster BHK-21 cells. In kind it is toxicity, cell-based. Particulars: read-out: Ratio CC50/EC50.
In data set [11] the test system is Chikungunya virus. Description: Antiviral activity against CHIKV 6708 infected in hamster BHK-21 cells assessed as reduction in virus titer in cells. It counts as functional, organism-based. To be noted: Chikungunya virus, 6708, BHK-21.
Data set [12] has as its system Chikungunya virus. Description: Antiviral activity against CHIKV 122508 infected in human HeLa CCL2 cells assessed as inhibition of viral replication at MOI of 1 at 80 uM pretreated for 2 hrs followed by viral infection measured after 1.5 hrs by viral plaque assay (reference value: 6.2). In kind it is functional. To be noted: time 3.5 hrs.
The test system of data set [13] is Chikungunya virus. Description: Antiviral activity against CHIKV 122508 infected in human HeLa CCL2 cells assessed as inhibition of viral replication at MOI of 1 at 40 uM pretreated with compound for 2 hr prior to viral infection by viral plaque assay (reference value: 6.2 %). It counts as functional.
For data set [14], the system named is Chikungunya virus. Put plainly: Antiviral activity against CHIKV 6708 infected in hamster BHK-21 cells assessed as reduction in viral titer at 80 uM post treatment. It counts as functional, organism-based.
For data set [15], the system named is Chikungunya virus. Description: Antiviral activity against CHIKV 122508 infected in human HeLa CCL2 cells assessed as inhibition of viral replication at MOI of 1 at 1 uM incubated for 24 hpi by viral plaque assay. In kind it is functional. Particulars: time 24 hrs.

Active and inactive are the calls of the source. The calls are words filed in the database; no cut-off is given here.

Turning to `C=C1CC[C@H]2C(C)(C)CCC[C@]2(C)[C@H]1C/C=C1\C(=O)Nc2ncccc21`, the EC50 with Chikungunya virus [1] was 0.04 µM. In addition, the Activity in the data set on Chikungunya virus [2] turned out to be 1.7. The CC50 in [3] worked out at 34.8 µM. For the same molecule, the selectivity ratio in data set [4] was 870.

In the case of `C=C1CC[C@H]2C(C)(C)CCC[C@]2(C)[C@H]1C/C=C1/C(=O)Nc2c(F)cccc21`, the EC50 in the data set with Chikungunya virus [1] was determined as 0.02 µM. The Activity in the data set on Chikungunya virus [2] was found to be 2.3. For the same molecule, the CC50 in data set [3] amounted to 81.4 µM. In data set [4], the selectivity ratio worked out at 4070.

Turning to `C=C1CC[C@H]2C(C)(C)CCC[C@]2(C)[C@H]1C/C=C1/C(=O)Nc2ccc(F)cc21`, the EC50 in the data set on Chikungunya virus [1] was 0.06 µM. Moreover, the CC50 in data set [3] was 5.6 µM. The Activity in the data set on Chikungunya virus [5] came to 1.5. For the same molecule, the selectivity ratio in data set [4] worked out at 94.

As for `C=C1CC[C@H]2C(C)(C)CCC[C@]2(C)[C@H]1C/C=C1/C(=O)Nc2c(C)cccc21`, in the data set on Chikungunya virus [1], the EC50 was found to be 0.62 µM. Moreover, the Activity with Chikungunya virus [6] is 1.3. Also, the CC50 in data set [3] was found to be 142 µM. The selectivity ratio in data set [4] was determined as 230.

Consider `C=C1CC[C@H]2C(C)(C)CCC[C@]2(C)[C@H]1C/C=C1/C(=O)Nc2cc(C)ccc21`, for which the EC50 in the data set with Chikungunya virus [1] stood at 0.002 µM. For the same molecule, the CC50 in [3] stood at 25.4 µM. Besides, the Activity in the data set with Chikungunya virus [5] turned out to be 1.2. Also, in [4], the selectivity ratio worked out at 12700.

As to `C=C1CC[C@H]2C(C)(C)CCC[C@]2(C)[C@H]1C/C=C1\C(=O)NC(=O)c2ccccc21`, the EC50 in the data set with Chikungunya virus [1] came out at 0.29 µM. Moreover, the Activity with Chikungunya virus [7] is 3.8. For the same molecule, the CC50 in [3] is more than 100 µM. Besides, the selectivity ratio in data set [4] is more than 347.

`C=C1CC[C@H]2C(C)(C)CCC[C@]2(C)[C@H]1C/C=C1\C(=O)Nc2c(Cl)cc(F)cc21`: in the data set with Chikungunya virus [1], the EC50 was 0.07 µM. Further, the Activity in the data set with Chikungunya virus [7] stood at 2.6. In addition, in data set [3], the CC50 was more than 100 µM. Also, in data set [4], the selectivity ratio was more than 1350.

As to `C=C1CC[C@@H]2[C@](C)(CO)[C@H](O)CC[C@@]2(C)[C@@H]1C/C=C1/C(=O)Nc2ccccc21`, the EC50 in the data set on Chikungunya virus [1] is 5.52 µM; with Chikungunya virus [8], 5.5 µM. Besides, the CC50 in data set [3] worked out at 76.9 µM. Also, the selectivity ratio in data set [4] was 14.

In the case of `C=C1CC[C@H]2C(C)(C)CCC[C@]2(C)[C@H]1C/C=C1/C(=O)Nc2c(OC)cccc21`, the concentration giving a half-maximal response (EC50) in the data set on Chikungunya virus [1] was 0.15 µM. Besides, the Activity with Chikungunya virus [6] is given as 2.6. Also, the CC50 in [3] was found to be 90.2 µM. The selectivity ratio in data set [4] is 602.

In the case of `C=C1CC[C@H]2C(C)(C)CCC[C@]2(C)[C@H]1C/C=C1\C(=O)Nc2c(C)cccc21`, the EC50 in the data set with Chikungunya virus [1] came to 0.15 µM. Besides, the Activity with Chikungunya virus [7] amounted to 2.8. Further, the CC50 in [3] is more than 100 µM. Moreover, the selectivity ratio in data set [4] is more than 667.

In the case of `C=C1CC[C@H]2C(C)(C)CCC[C@]2(C)[C@H]1C/C=C1/C(=O)Nc2c(Cl)cccc21`, the EC50 with Chikungunya virus [1] was 1.55 µM; in the data set on Chikungunya virus [11], 0.14 µM. Further, the CC50 with BHK-21 is more than 100 µM; in data set [3], 130 µM. Moreover, the result with Chikungunya virus [9] and in the data set on Chikungunya virus [14] was Active. In addition, the results for the selectivity ratio in [10] and in data set [4] were 714 and 83, respectively. Moreover, the values for the Activity in the data set with Chikungunya virus [6], with Chikungunya virus [12] and with Chikungunya virus [13] were 3.9, 4.6 and 5.2, respectively.

Turning to `C=C1CC[C@@H]2[C@](C)(CO)[C@H](O)CC[C@@]2(C)[C@@H]1C/C=C1/C(=O)OC[C@H]1O` [ANDROGRAPHOLIDE], the EC50 in the data set with Chikungunya virus [8] stood at 77 µM.

Regarding `C=C1CC[C@H]2C(C)(C)CCC[C@]2(C)[C@H]1C/C=C1\C(=O)Nc2ccc(C)cc21`, in the data set with Chikungunya virus [1], the EC50 is 0.03 µM. Besides, in data set [3], the CC50 stood at 13.8 µM. Also, the Activity with Chikungunya virus [5] amounted to 0.9. Moreover, in data set [4], the selectivity ratio was determined as 461.

For `C=C1CC[C@H]2C(C)(C)CCC[C@]2(C)[C@H]1C/C=C1/C(=O)Nc2c(Cl)cc(F)cc21`, the EC50 in the data set on Chikungunya virus [1] was 0.08 µM. The Activity in the data set with Chikungunya virus [6] was 2.7. Also, the CC50 in data set [3] came out at 134 µM. In data set [4], the selectivity ratio amounted to 1680.

As for `C=C1CC[C@H]2C(C)(C)CCC[C@]2(C)[C@H]1C/C=C1\C(=O)Nc2c(Br)cccc21`, the EC50 in the data set with Chikungunya virus [1] was 1.12 µM. Also, the Activity in the data set on Chikungunya virus [7] is recorded as 2.3. The CC50 in data set [3] was more than 100 µM. Moreover, the selectivity ratio in data set [4] is more than 90.

For `C=C1[C@H](O)C[C@H]2C(C)(C)CCC[C@]2(C)[C@H]1C/C=C1/C(=O)Nc2c(Cl)cccc21`, the EC50 in the data set with Chikungunya virus [1] stood at 0.001 µM. Also, the Activity in the data set on Chikungunya virus [15] was found to be 1.1. Moreover, the CC50 in data set [3] turned out to be 6.1 µM. Besides, in data set [4], the selectivity ratio is 6100.
